Among the data in paper PMC2222994 (The Journal of General Physiology, 1999) are IC50 values, retold here.

This assay deals with T1, CNG channel (bovine retinal rod cGMP-gated channel alpha subunit) (Bos taurus, UniProt Q00194).
T1 sequence (Q00194 1-690): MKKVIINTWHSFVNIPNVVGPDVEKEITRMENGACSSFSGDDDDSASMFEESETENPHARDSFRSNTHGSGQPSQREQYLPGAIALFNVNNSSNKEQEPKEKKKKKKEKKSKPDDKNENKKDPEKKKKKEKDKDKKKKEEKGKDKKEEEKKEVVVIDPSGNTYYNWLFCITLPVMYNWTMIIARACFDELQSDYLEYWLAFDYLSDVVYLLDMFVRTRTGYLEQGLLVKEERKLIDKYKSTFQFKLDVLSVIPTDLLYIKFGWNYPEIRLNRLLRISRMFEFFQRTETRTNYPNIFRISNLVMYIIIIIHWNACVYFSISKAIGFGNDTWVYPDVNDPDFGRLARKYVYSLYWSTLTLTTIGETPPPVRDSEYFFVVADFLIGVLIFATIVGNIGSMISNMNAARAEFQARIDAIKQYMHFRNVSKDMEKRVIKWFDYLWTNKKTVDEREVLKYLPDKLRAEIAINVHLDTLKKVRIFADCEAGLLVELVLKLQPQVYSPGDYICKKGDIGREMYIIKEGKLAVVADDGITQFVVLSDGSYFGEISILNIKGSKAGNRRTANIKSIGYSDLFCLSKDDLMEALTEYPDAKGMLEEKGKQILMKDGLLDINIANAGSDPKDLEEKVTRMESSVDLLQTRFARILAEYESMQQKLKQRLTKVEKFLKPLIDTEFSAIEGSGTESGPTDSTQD
The assay can be described thus: outside-out patch clamp, macroscopic current block. It counts as cell-based.
For `NCCCCN` [putrescine], the IC50 was 1400 µM. The compound `NCCCCNCCCN` [spermidine] gave an IC50 of 50 µM. `NCCCNCCCCNCCCN` [spermine]: half-maximal inhibition (IC50) required 3.1 µM.

One may read the IC50 as the point on the concentration scale where inhibition reaches its midpoint. Higher therefore signals weaker potency.
